pEC50: −log10 of the molar value. Structures can show the parent of a compound that is named as a salt. Where two headings read alike, the source gives them in different places.
Tests used:
GM16513 cells [1] = format: cell-based; settings: 3 days, PI positive cells (dead cells)
Protocol: (§1) Images were acquired using the EnSight multimode plate reader (PerkinElmer) and analysis was done using Columbus analysis software (PerkinElmer). […] Then the total number of cells and the % of dead cells was calculated.
(§2) All HDAC inhibitors were tested at 1.3 and 10 µM for 3 days on GM16513 and PEX405 cells.

PEX405 cells [2] = format: cell-based; settings: 3 days, PI positive cells (dead cells)
Protocol: as §1, §2

PEX405 cells [3] = experiment: Catalase import immunofluorescence, high-content screening (% importing cells); format: cell-based, human; settings: PEX405 cells, 3 days
GM16513 cells [4] = experiment: as above; format: cell-based, human; settings: GM16513 cells, 3 days; for pEC50 / Emax: Homo sapiens, 72 h, dose response with 6 concentrations; for pEC50: read-out: EC50; for Emax: read-out: Max Efficacy (% Importing cells)
Protocol: Primary fibroblasts were seeded at 500-700 cells per well in 384-well plates and grown at 37°C overnight. Cells were treated with test compounds or 0.1% DMSO for 3 days. After 3 days and a wash with PBS, cells were fixed with 4% paraformaldehyde (Electron Microscopy Sciences) in PBS for 20 minutes. After 3 washes with PBS, the cells were permeabilized and blocked with 0.3% Triton X-100, 1% BSA in PBS for 30 minutes at room temperature followed by 3 washes with 1% BSA in PBS. The cells were incubated with a rabbit Catalase polyclonal antibody (#12980 Cell signaling) overnight at 4°C. Following 3 washes with PBS containing 0.1% Tween-20, the cells were incubated for 1 h at room temperature with a conjugated goat anti-rabbit secondary antibody Alexa Fluor 647 (Ab150083-Abcam). The cells were then washed 3 times with PBS and Hoechst 33342 (H3570-ThermoFisher Scientific) + HCS Cellmask Blue (H32720 - ThermoFisher Scientific) staining was performed at 0.1 µg/ml and 0.4 µg/mL respectively for 30 minutes at room temperature. The cells were finally washed 3 times with PBS and fluorescent images were acquired using the INCell Analyzer 6000 imaging platform (GE Healthcare Life Sciences).
Images analysis was done using Columbus analysis software (PerkinElmer). DAPI channel was used to find nuclei (Hoechst 33342) and cytoplasm (HCS CellMask Blue) and border objects were removed. Cy5 channel (AlexaFluor 647) was used to find spots corresponding to peroxisomes which correctly import catalase. […] The number of importing or non-importing cells was calculated. Finally, results were expressed as % of importing cells.
The cytotoxicity was assessed in parallel using a double nucleus staining with Hoechst 33342 and Propidium Iodide (PI).
The EC50 and maximum efficacy of these inhibitors were determined.

Compound	% PI+ cells (GM16513 cells [1]; 1.3 µM) [%]	% PI+ cells (GM16513 cells [1]; 10 µM) [%]	% PI+ cells (PEX405 cells [2]; 1.3 µM) [%]	% PI+ cells (PEX405 cells [2]; 10 µM) [%]	% Importing cells (PEX405 cells [3]; 1.3 µM) [%]	% Importing cells (PEX405 cells [3]; 10 µM) [%]	% Importing cells (GM16513 cells [4]; 1.3 µM) [%]	% Importing cells (GM16513 cells [4]; 10 µM) [%]	pEC50 (GM16513 cells [4])	Emax (GM16513 cells [4]) [%]
Nc1cc(F)ccc1NC(=O)/C=C/c1cnn(C/C=C/c2ccccc2)c1 [RGFP966]	1	3	1	1	1	2	11	12	–	–
COc1cccc2c1c(O)c(C(=O)N(C)c1ccc(C(F)(F)F)cc1)c(=O)n2C [Tasquinimod]	1	1	0	0	7	4	23	22	–	–
CCCCN(Cc1ccc(C(=O)NO)cc1)C(=O)Nc1ccccc1 [Nexturastat A]	2	4	1	3	8	27	35	83	–	–
CN(C)Cc1ccc(S(=O)(=O)n2ccc(/C=C/C(=O)NO)c2)cc1 [Resminostat (hydrochloride), Resminostat]	2	8	1	4	13	19	60	83	5.85	86
COC(=O)c1ccc(OC(=O)CCCCCCC(=O)NO)cc1 [Remetinostat]	1	1	0	1	3	2	12	14	–	–
Oc1cc(O)cc(/C=C/c2c(O)cccc2O)c1 [Gnetol]	1	1	1	1	2	3	12	9	–	–
O=C(/C=C/c1ccc(CN(CCO)CCc2c[nH]c3ccccc23)cc1)NO [Dacinostat]	31	35	45	56	25	0	88	76	–	–
CCN1CCN(C(c2cccnc2)c2cc(Cl)c3cccnc3c2O)CC1 (centres unmarked) [BRD 4354]	1	3	0	3	4	10	21	30	–	–
CCCCc1nc2cc(/C=C/C(=O)NO)ccc2n1CCN(CC)CC [Pracinostat]	4	31	2	41	52	25	92	86	6.77	93
O=C(CCCCCCC(=O)Nc1ccc([C@H]2O[C@@H](CSc3nc(-c4ccccc4)c(-c4ccccc4)o3)C[C@@H](c3ccc(CO)cc3)O2)cc1)NO [Tubacin]	–	4	–	4	–	5	–	39	–	–
HDACs/mTOR Inhibitor 1	14	24	8	40	9	33	77	96	–	–
Cc1cc(C)cc(C(=O)NOCCCCCC(=O)NO)c1 [LMK-235]	2	15	1	16	45	18	86	95	–	–
O=C(NO)c1cccc(C(=O)NCCc2ccccc2)c1 [BRD73954]	1	1	0	1	3	4	19	23	–	–
Nc1ccccc1NC(=O)c1ccc(CNC(=O)OCc2cccnc2)cc1 [Entinostat]	2	7	2	6	15	12	45	58	6.33	54
O=C(NO)c1cnc(N2C[C@@H]3[C@H](C2)[C@H]3NCc2ccc3cc(F)ccc3n2)nc1 [Nanatinostat]	12	37	15	54	14	0	88	78	7.30	93
CC(C)(C)OC(=O)Nc1ccc(-c2cc(C(=O)NCCCCCCC(=O)NO)no2)cc1 [CAY10603]	2	31	1	35	22	11	73	85	–	–
Nc1[nH]c(=O)nc2c1ncn2[C@@H]1O[C@H](CO)[C@@H](O)[C@H]1O [Crotonoside]	1	1	0	1	3	3	20	18	–	–
COc1ccc(/C=C/C(=O)NO)c(-c2ccc(-c3ccccc3)cc2)c1 [HDAC8-IN-1]	2	14	0	2	2	0	10	3	–	–
CCOC(=O)c1cnc(NC2(c3ccccc3)CC2)nc1 [CG347B]	1	1	1	0	4	5	25	21	–	–
ACY-1083	2	1	1	1	5	4	17	42	–	–
Nc1ccc(-c2cccs2)cc1NC(=O)c1ccc2nc(N3CCNCC3)ccc2c1 [ACY-957]	1	38	1	55	16	13	74	0	–	–
O=C(NO)c1cnc(NC2(c3cccc(F)c3)CCCCC2)nc1 [ACY-775]	2	2	0	1	4	9	21	47	–	–
CC(C)(C)c1ccc(C(=O)Nc2ccc(C(=O)NO)cc2)cc1 [AES-350]	2	5	1	1	5	10	22	45	–	–
O=C(NO)c1ccc(CNC(=O)c2[nH]c(-c3ccc(O)cc3)cc2-c2ccoc2)cc1.O=C(O)C(F)(F)F [QTX125 (TFA)]	11	30	13	48	23	0	83	61	–	–
Nc1ccccc1NC(=O)c1cnccn1 [BG45]	1	1	1	2	4	5	15	30	–	–
Cc1cc(Cl)ccc1OCCCC(=O)NO [Droxinostat]	1	1	0	2	3	4	12	23	–	–
O=C(CCCCCCC(=O)Nc1cccnc1)NO [Pyroxamide]	1	4	1	1	5	3	25	11	–	–
CC(/C=C/C(=O)NO)=C\[C@@H](C)C(=O)c1ccc(N(C)C)cc1 [Trichostatin A]	18	30	24	49	28	0	90	76	–	–
CN1CCc2c(c3ccccc3n2Cc2ccc(C(=O)NO)cc2)C1.Cl [Tubastatin A (Hydrochloride), Tubastatin A]	2	1	1	1	3	6	12	37	–	–

Source: patent EP4410284A1, “COMPOUND AND METHOD FOR THE TREATMENT OF ZELLWEGER SPECTRUM DISORDER” (Apteeus, priority 2023, dated 2024)
